From patent US5618537A, “Plant-based medicaments for increasing the tone and modulating the tone of the smooth muscular organ” (Steigerwald Arzneimittelwerk GmbH, priority 1991, dated 1997)

Key:
carrageenan oedema = assay: Carrageenan oedema model of the rat (paw volume, plethysmometer); type: in vivo; conditions: 4 mg/kg of body wt., 1/2 h before induction
Procedure: The carrageenan oedema model of the rat is an internationally recognised pharmacological method for uncovering clinically relevant anti-inflammatory agents.
The test substances were administered 1/2 h before induction of oedema; the control animals received the solvent (30% ethanol). The paw volume was measured with a plethysmometer before (0 value) oedema induction and 1, 2, 3, 4 and 6 hours after.
The anti-inflammatory action of the test substances was calculated according to the formula [formula] V=average value of the differences from the 0 value: drug group K=average value of the differences from the 0 value; control group

guinea-pig ileum = assay: Increase in basal tone of resting isolated guinea-pig ileum (Magnus model); parameters: unit not given here; conditions: 40 μg/l; for Contraction induced by acetylcholine, Average value: average of 6

Compound | % inhibition of carrageenan oedema (carrageenan oedema; 1 h after oedema induction) [%] | % inhibition of carrageenan oedema (carrageenan oedema; 2 h after oedema induction) [%] | % inhibition of carrageenan oedema (carrageenan oedema; 3 h after oedema induction) [%] | % inhibition of carrageenan oedema (carrageenan oedema; 4 h after oedema induction) [%] | % inhibition of carrageenan oedema (carrageenan oedema; 6 h after oedema induction) [%] | Contraction induced by acetylcholine (comparison for increase in basal tone) (guinea-pig ileum; Table 2 series (STW 5-II), Expt. 1) | Contraction induced by acetylcholine (comparison for increase in basal tone) (guinea-pig ileum; Table 2 series (STW 5-II), Expt. 2) | Contraction induced by acetylcholine (comparison for increase in basal tone) (guinea-pig ileum; Table 2 series (STW 5-II), Expt. 3) | Contraction induced by acetylcholine (comparison for increase in basal tone) (guinea-pig ileum; Table 2 series (STW 5-II), Expt. 4) | Contraction induced by acetylcholine (comparison for increase in basal tone) (guinea-pig ileum; Table 2 series (STW 5-II), Expt. 5) | Contraction induced by acetylcholine (comparison for increase in basal tone) (guinea-pig ileum; Table 2 series (STW 5-II), Expt. 6) | Contraction induced by acetylcholine, Average value (guinea-pig ileum; Table 2 series (STW 5-II)) | Contraction induced by acetylcholine (comparison for increase in basal tone) (guinea-pig ileum; Table 3 series (STW 5), Expt. 1) | Contraction induced by acetylcholine (comparison for increase in basal tone) (guinea-pig ileum; Table 3 series (STW 5), Expt. 2) | Contraction induced by acetylcholine (comparison for increase in basal tone) (guinea-pig ileum; Table 3 series (STW 5), Expt. 3) | Contraction induced by acetylcholine (comparison for increase in basal tone) (guinea-pig ileum; Table 3 series (STW 5), Expt. 4) | Contraction induced by acetylcholine (comparison for increase in basal tone) (guinea-pig ileum; Table 3 series (STW 5), Expt. 5) | Contraction induced by acetylcholine (comparison for increase in basal tone) (guinea-pig ileum; Table 3 series (STW 5), Expt. 6) | Contraction induced by acetylcholine, Average value (guinea-pig ileum; Table 3 series (STW 5))
COc1ccc2c(c1)c(CC(=O)O)c(C)n2C(=O)c1ccc(Cl)cc1 [Indomethacin] | 24.0 | 23.5 | 35.0 | 47.5 | 61.3 |  |  |  |  |  |  |  |  |  |  |  |  |  | 
CC(=O)OCC[N+](C)(C)C [Acetylch., acetylcholine] |  |  |  |  |  | 10.1 | 14.6 | 11.7 | 14.0 | 12.7 | 8.6 | 11.95 | 11.8 | 6.3 | 12.1 | 9.9 | 12.2 | 5.9 | 9.70
